Test results as given in patent US11572362B2, “Pyrrolo[1,2-b]pyridazine derivatives” (Gilead Sciences, Inc., priority 2018, dated 2023).

What was measured:
[1] = target: IRAK4 (Homo sapiens (Human), UniProt Q9NWZ3); test: IRAK4 Biochemical Assay (TR-FRET/HTRF); conditions: IRAK4 enzyme 0.75 nM, 500 μM ATP, 2 μM STK1 peptide, 120 min
Experimental: IRAK4 Biochemical Assay Procedure:
IRAK4 enzyme (Carna Biosciences, Chuo-ku, Kobe, Japan) activity was measured by detecting phosphorylated peptide substrate formation using an antibody against the phosphorylated peptide substrate. This is a time-resolved fluorescence resonance energy transfer (TR-FRET) immunoassay, based on the STK1 KinEASE Assay (Cisbio, Bedford, Mass.). The assay was designed as a simple two-step, endpoint assay (a 5 μl enzyme reaction followed by 5 μl stop and detect Solution) performed in ProxiPlate-384 Plus plates (Perkin Elmer, Waltham, Mass.). Staurosporine, a non-selective kinase inhibitor was used as a positive control. Compounds diluted in DMSO were spotted into 384 well plates using a Labcyte® Echo 550 Liquid Handling System prior to addition of IRAK4 enzyme and peptide substrate. Reaction solutions were delivered using a Multi-Flo (Bio-Tek Instruments). The enzyme and peptide solution was incubated with compound for 15 minutes at room temp before the reaction was initiated by the addition of ATP. The standard 5 μl reaction mixture contained 500 μM ATP, 2 μM peptide (STK1 Peptide), 0.75 nM of IRAK4 in reaction buffer (50 mM HEPES, pH 7.0, 0.02% NaN3, 0.01% BSA, 0.1 mM Orthovanadate, 5 mM MgCl2, 0.025% NP-40, 1 mM DTT). After 120 min of incubation at room temperature, 5 μl of Stop and Detect Solution (1:100 Cryptate labeled anti-phosphorylated peptide antibody solution and 125 nM Tracer in a 50 mM HEPES pH 7.0 detection buffer containing sufficient EDTA) was added. The plate was then further incubated for 60 minutes at room temperature and read on Envision 2103 Multilabeled reader (PerkinElmer) with excitation/emission/FRET emission at 340 nm/615 nm/665 nm, respectively. Fluorescence intensities at 615 nm and 665 nm emission wavelengths were expressed as a ratio (665 nm/615 nm). Percentage of inhibition was calculated as below: % Inhibition=100×(RatioSample−Ratio0% Inhibition)/(Ratio100% Inhibition−Ratio0% Inhibition)
The 0% inhibition value comes from control wells lacking inhibitor. The 100% inhibition value comes from control wells containing a saturating amount of known inhibitor staurosporine.

[2] = test system: TNFα; test: IRAK4 Monocyte TNFα Cell Based Assay; conditions: Monocyte; cryopreserved human monocytes, 50 pg/ml LPS, compound 1 hour pre-treatment, 4 hours stimulation, TNFα by TR-FRET
Experimental: IRAK4 Monocyte TNFα Cell Based Assay Procedure:
The cell suspension was then plated at a density of 5,000 cells/well onto black 384 well Greiner clear bottom plates. Plates were pre-spotted with test compounds and serially diluted in DMSO where 40 nL/well were delivered using the Echo 550 acoustic liquid dispenser (Labcyte®) for a final DMSO concentration of 0.1%. Plated cells were treated with compound for 1 hour at 37° C. Cells were then stimulated with 50 pg/ml of LPS (Sigma) excluding outside columns of plate used for unstimulated cell control wells. Cells were incubated for an additional 4 hours at 37° C. Cells were then spun out of the media and 5 μl of sample were taken and analyzed for total TNFα content using the TR-FRET Human TNFα detection system (CisBio). This system utilizes two labeled antibodies (cryptate and XL665) that bind to two different epitopes of the TNFα molecule and produce FRET signal proportional to the concentration of TNFα in the sample. Detection antibodies are mixed 50:50 and 5 μL were dispensed into each well. Plates were covered with clear seals and incubated at room temp overnight. The following morning plates were read using an Envision 2103 Multilabeled reader (PerkinElmer) with excitation/emission/FRET emission at 340 nm/615 nm/665 nm, respectively. Fluorescence intensities at 615 nm and 665 nm emission wavelengths were expressed as a ratio (665 nm/615 nm). Percent of control was calculated as follows: % Control=100×(RatioSample−Ratio0% Stimulation)/(Ratio100% Stimulation−Ratio0% Stimulation)
where unstimulated cells (0% stimulation) were the negative control and stimulated cells (100% stimulation) were used as the positive control.

Sequence of IRAK4 (Q9NWZ3 whole entry): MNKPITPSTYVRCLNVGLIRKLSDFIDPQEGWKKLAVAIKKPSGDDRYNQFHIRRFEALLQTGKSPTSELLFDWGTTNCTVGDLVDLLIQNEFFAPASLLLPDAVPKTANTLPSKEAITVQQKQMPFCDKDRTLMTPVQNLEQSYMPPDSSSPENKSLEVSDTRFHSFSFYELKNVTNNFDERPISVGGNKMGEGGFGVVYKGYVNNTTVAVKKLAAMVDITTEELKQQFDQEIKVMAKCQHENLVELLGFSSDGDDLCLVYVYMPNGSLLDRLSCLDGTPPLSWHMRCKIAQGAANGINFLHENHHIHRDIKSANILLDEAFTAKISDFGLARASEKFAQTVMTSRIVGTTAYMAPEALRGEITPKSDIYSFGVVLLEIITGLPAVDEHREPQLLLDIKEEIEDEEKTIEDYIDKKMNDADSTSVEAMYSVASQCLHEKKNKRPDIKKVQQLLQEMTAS

Row | SMILES | IC50 [1] [nM] | EC50 [2] [nM]
1 | CC(C)(O)[C@H](F)CNC(=O)c1cnc(-c2ccc3cc(C#N)cnn23)cc1N[C@H]1CC[C@H](c2cnn(C3CC3)c2)CC1 [Compound 14, 6-(3-cyanopyrrolo[1,2-b]pyridazin-7-yl)-4-(((1r,4R)-4-(1-cyclopropyl-1H-pyrazol-4-yl)cyclohexyl)amino)-N-((R)-2-fluoro-3-hydroxy-3-methylbutyl)nicotinamide] | 1 | 53
2 | Cc1c(C2CCC(Nc3cc(-c4ccc5cc(C#N)cnn45)ncc3C(=O)NC[C@@H](F)C(C)(C)O)CC2)cnn1C(F)F (stereo partly drawn) [Compound 10, (R)-6-(3-cyanopyrrolo[1,2-b]pyridazin-7-yl)-4-((4-(1-(difluoromethyl)-5-methyl-1H-pyrazol-4-yl)cyclohexyl)amino)-N-(2-fluoro-3-hydroxy-3-methylbutyl)nicotinamide] | 8 | 55
3 | Cc1ncc([C@H]2CC[C@H](Nc3cc(-c4ccc5cc(C#N)cnn45)ncc3C(=O)NC[C@@H](F)C(C)(C)O)CC2)s1 [Compound 50, 6-(3-cyanopyrrolo[1,2-b]pyridazin-7-yl)-N-((R)-2-fluoro-3-hydroxy-3-methylbutyl)-4-(((1r,4R)-4-(2-methylthiazol-5-yl)cyclohexyl)amino)nicotinamide] | 1 | 52
4 | CC(C)(O)[C@H](F)CNC(=O)c1cnc(-c2ccc3cc(C#N)cnn23)cc1NC1CCC(c2ccncc2)CC1 (single isomer, unassigned) [Compound 56] | 9 | 221
5 | CC(C)(O)[C@H](F)CNC(=O)c1cnc(-c2ccc3cc(C#N)cnn23)cc1N[C@H]1CC[C@H](c2cnn(C(F)(F)F)c2)CC1 [Compound 4, 6-(3-cyanopyrrolo[1,2-b]pyridazin-7-yl)-N-((R)-2-fluoro-3-hydroxy-3-methylbutyl)-4-(((1r,4R)-4-(1-(trifluoromethyl)-1H-pyrazol-4-yl)cyclohexyl)amino)nicotinamide] | 3 | 37
6 | Cc1nnc([C@H]2CC[C@H](Nc3cc(-c4ccc5cc(C#N)cnn45)ncc3C(=O)NC[C@@H](F)C(C)(C)O)CC2)o1 [Compound 39, 6-(3-cyanopyrrolo[1,2-b]pyridazin-7-yl)-N-((R)-2-fluoro-3-hydroxy-3-methylbutyl)-4-(((1r,4R)-4-(5-methyl-1,3,4-oxadiazol-2-yl)cyclohexyl)amino)nicotinamide] | < 1 | 33
7 | CC(C)(O)[C@H](F)CNC(=O)c1cnc(-c2ccc3cc(C#N)cnn23)cc1N[C@H]1CC[C@H](n2ccc(C(F)F)n2)CC1 [Compound 23, 6-(3-cyanopyrrolo[1,2-b]pyridazin-7-yl)-4-(((1r,4R)-4-(3-(difluoromethyl)-1H-pyrazol-1-yl)cyclohexyl)amino)-N-((R)-2-fluoro-3-hydroxy-3-methylbutyl)nicotinamide] | 1 | 38
8 | CC(C)(O)[C@H](F)CNC(=O)c1cnc(-c2ccc3cc(C#N)cnn23)cc1N[C@H]1CC[C@@H](c2cn[nH]c2)CC1 [Compound 2, 4-(((1s,4S)-4-(1H-pyrazol-4-yl)cyclohexyl)amino)-6-(3-cyanopyrrolo[1,2-b]pyridazin-7-yl)-N-((R)-2-fluoro-3-hydroxy-3-methylbutyl)nicotinamide] | < 1 | 66
9 | CC(C)(O)[C@H](F)CNC(=O)c1cnc(-c2ccc3cc(C#N)cnn23)cc1N[C@H]1CC[C@H](C2CCOCC2)CC1 [Compound 67, 6-(3-cyanopyrrolo[1,2-b]pyridazin-7-yl)-N-((R)-2-fluoro-3-hydroxy-3-methylbutyl)-4-(((1r,4R)-4-(tetrahydro-2H-pyran-4-yl)cyclohexyl)amino)nicotinamide] | 1 | 41
10 | CC(C)(O)[C@H](F)CNC(=O)c1cnc(-c2ccc3cc(C#N)cnn23)cc1N[C@H]1CC[C@H](n2cc(C(N)=O)nn2)CC1 [Compound 34, 4-(((1r,4R)-4-(4-carbamoyl-1H-1,2,3-triazol-1-yl)cyclohexyl)amino)-6-(3-cyanopyrrolo[1,2-b]pyridazin-7-yl)-N-((R)-2-fluoro-3-hydroxy-3-methylbutyl)nicotinamide] | < 1 | 43
11 | CC(C)(O)[C@H](F)CNC(=O)c1cnc(-c2ccc3cc(C#N)cnn23)cc1N[C@H]1CC[C@H](c2nnc(C(F)F)s2)CC1 [Compound 53, 6-(3-cyanopyrrolo[1,2-b]pyridazin-7-yl)-4-(((1r,4R)-4-(5-(difluoromethyl)-1,3,4-thiadiazol-2-yl)cyclohexyl)amino)-N-((R)-2-fluoro-3-hydroxy-3-methylbutyl)nicotinamide] | < 1 | 27
12 | Cc1cnn([C@H]2CC[C@H](Nc3cc(-c4ccc5cc(C#N)cnn45)ncc3C(=O)NC[C@@H](F)C(C)(C)O)CC2)c1 [Compound 26, 6-(3-cyanopyrrolo[1,2-b]pyridazin-7-yl)-N-((R)-2-fluoro-3-hydroxy-3-methylbutyl)-4-(((1r,4R)-4-(4-methyl-1H-pyrazol-1-yl)cyclohexyl)amino)nicotinamide] | < 1 | 91
13 | CC(C)(O)[C@H](F)CNC(=O)c1cnc(-c2ccc3cc(C#N)cnn23)cc1N[C@H]1CC[C@H](n2cc(C#N)cn2)CC1 [Compound 24, 4-(((1r,4R)-4-(4-cyano-1H-pyrazol-1-yl)cyclohexyl)amino)-6-(3-cyanopyrrolo[1,2-b]pyridazin-7-yl)-N-((R)-2-fluoro-3-hydroxy-3-methylbutyl)nicotinamide] | < 1 | 19
14 | CC(C)(O)[C@H](F)CNC(=O)c1cnc(-c2ccc3cc(C#N)cnn23)cc1N[C@H]1CC[C@H](n2ccnn2)CC1 [Compound 31, 4-(((1r,4R)-4-(1H-1,2,3-triazol-1-yl)cyclohexyl)amino)-6-(3-cyanopyrrolo[1,2-b]pyridazin-7-yl)-N-((R)-2-fluoro-3-hydroxy-3-methylbutyl)nicotinamide] | 1 | 40
15 | CC(C)(O)[C@H](F)CNC(=O)c1cnc(-c2ccc3cc(C#N)cnn23)cc1NC12CCC(N3CCOCC3=O)(CC1)CC2 [Compound 69, (R)-6-(3-cyanopyrrolo[1,2-b]pyridazin-7-yl)-N-(2-fluoro-3-hydroxy-3-methylbutyl)-4-((4-(3-oxomorpholino)bicyclo[2.2.2]octan-1-yl)amino)nicotinamide] | < 1 | 15
16 | Cc1ncc(C2CCC(Nc3cc(-c4ccc5cc(C#N)cnn45)ncc3C(=O)NC[C@@H](F)C(C)(C)O)CC2)cn1 (stereo partly drawn) [Compound 58, (R)-6-(3-cyanopyrrolo[1,2-b]pyridazin-7-yl)-N-(2-fluoro-3-hydroxy-3-methylbutyl)-4-((4-(2-methylpyrimidin-5-yl)cyclohexyl)amino)nicotinamide] | 4 | 112
17 | CC(C)(O)[C@H](F)CNC(=O)c1cnc(-c2ccc3cc(C#N)cnn23)cc1NC1CCC(c2cnc(C(F)F)s2)CC1 (stereo partly drawn) [Compound 51, (R)-6-(3-cyanopyrrolo[1,2-b]pyridazin-7-yl)-4-((4-(2-(difluoromethyl)thiazol-5-yl)cyclohexyl)amino)-N-(2-fluoro-3-hydroxy-3-methylbutyl)nicotinamide] | 3 | 76
18 | CC(C)(O)[C@H](F)CNC(=O)c1cnc(-c2ccc3cc(C#N)cnn23)cc1N[C@H]1CC[C@H](n2cc(C(F)F)nn2)CC1 [Compound 35, 6-(3-cyanopyrrolo[1,2-b]pyridazin-7-yl)-4-(((1r,4R)-4-(4-(difluoromethyl)-1H-1,2,3-triazol-1-yl)cyclohexyl)amino)-N-((R)-2-fluoro-3-hydroxy-3-methylbutyl)nicotinamide] | < 1 | 16
